# Columns and labels:
# [1] = AT-9010 half-life in human hepatocytes (washout); format: in vitro ADME; conditions: both sexes, plated cryopreserved human hepatocytes, 100 μM AT-511 for 6 h, washout 30 h
# Method: (§1) Hepatocytes. […] Cryopreserved male mouse (CD1), and fresh male Beagle dog and male cynomolgus monkey hepatocytes were obtained from BioreclamationIVT (Baltimore, MD) and were similarly plated with Matrigel in 6- or 24-well plates and maintained overnight in InVitroGRO™HI medium with Torpedo™ antibiotic (BioreclamationIVT). The protocol described above for measuring AT-511 and its metabolites in Huh-7 cells was repeated with the five different hepatocytes. Untreated cells were collected at 24 h, and the protein content of the cell lysates were determined using a bicinchoninic acid protein assay kit to assess the number of cells in each incubation. Separately, plated human hepatocytes were incubated for 6 h with 100 μM AT-511, followed by washout periods of 0, 2, 6, 18 and 30 h.
# (§2) S3 Protocol. LC-MS/MS analysis of AT-511 and metabolites in cultured cells. The supernatant extracts of each hepatocyte and Huh-7 cell incubation were separately analyzed by four different LC-MS/MS methods for quantitation of phosphoramidates, nucleosides, monophosphates, and triphosphates (methods 1, 2, 3 and 4, respectively), using synthetic reference standards of actually and potentially present compounds and using structurally related analogs as internal standards. […]
# Huh-7 cells = assay: Intracellular metabolism in Huh-7 replicon cells; format: in vitro ADME, human
# Method: Huh-7 replicon cells. […] At each time point, the media was removed and the cells were washed twice with cold PBS, collected in 1 mL cold 60% MeOH, and extracted overnight at -20°C with internal standard added. […] Untreated cells were collected at each time point as a negative control.
# S3 Protocol. LC-MS/MS analysis of AT-511 and metabolites in cultured cells. The supernatant extracts of each hepatocyte and Huh-7 cell incubation were separately analyzed by four different LC-MS/MS methods for quantitation of phosphoramidates, nucleosides, monophosphates, and triphosphates (methods 1, 2, 3 and 4, respectively), using synthetic reference standards of actually and potentially present compounds and using structurally related analogs as internal standards. Briefly, a Luna PFP (2), 5 µm, 100 x 4.6 mm column and an AB Sciex API-6500 mass spectrometer (ESI positive ion, MRM mode) were used for methods 1-3 and an XBridge Oligonucleotide, BEH C18, 2.5 µm, 50 x 2.1 mm column and a Thermo QE Plus mass spectrometer (electrospray, negative ion mode) were used for method 4. For methods 1 and 2, mobile phases A (10 mM ammonium acetate in water) and B (acetonitrile:methanol, 1:1, v/v) were used to elute samples (5 µL) at 1 mL/min with 15% B for 1.5 min followed by a linear gradient to 75% B over 1 min (method 1) or with 54% B for 1.3 min followed by a linear gradient to 90% B over 1.2 min. […]
# [2] = Intracellular metabolism in rat hepatocytes; format: in vitro ADME, Sprague Dawley rat
# Method: as §1, §2
# human DNA polymerase γ = target: T1, human DNA polymerase γ (Homo sapiens, UniProt P54098); assay: Human DNA polymerase inhibition assay, γ; format: biochemical
# T1 construct: purchased CHIMERx (Madison, WI)
# Method: The polymerases were purchased from CHIMERx (Madison, WI). Inhibition of DNA polymerase α activity was assayed in microtiter plates in 20 mM Tris-HCl, pH 8, 5 mM Mg acetate, 0.3 mg/mL BSA, 1mM DTT, 0.1 mM spermine, 0.05 mM dCTP, dTTP and dATP, 10 μCi ^32P-α-dGTP (800 Ci/mmol), 20 μg activated calf thymus DNA and the test compound at indicated concentrations. The DNA polymerase β and γ reaction mixture contained 50 mM Tris-HCl, pH 8.7, KCl (10 mM for β and 100 mM for γ), 10 mM MgCl2, 0.4 mg/mL BSA, 1mM DTT, 15% glycerol, 0.05 mM dCTP, dTTP and dATP, 10 μCi ^32P-α-dGTP (800 Ci/mmol), 20 μg activated calf thymus DNA and test compound at the indicated concentrations. For each assay, samples were run in triplicate, and positive controls were included. The enzyme reactions were allowed to proceed for 30 min at 37 °C followed by transfer onto glass-fiber filter plates and subsequent precipitation with 10% trichloroacetic acid (TCA). Plates were washed five times with 5% TCA, once with 95% ethanol and dried. The radioactive content of each filter was measured and used to determine the extent of inhibition of each polymerase.
# [3] = Intracellular metabolism in monkey hepatocytes; format: in vitro ADME, cynomolgus monkey
# Method: as §1, §2
# T1 sequence (P54098 whole entry): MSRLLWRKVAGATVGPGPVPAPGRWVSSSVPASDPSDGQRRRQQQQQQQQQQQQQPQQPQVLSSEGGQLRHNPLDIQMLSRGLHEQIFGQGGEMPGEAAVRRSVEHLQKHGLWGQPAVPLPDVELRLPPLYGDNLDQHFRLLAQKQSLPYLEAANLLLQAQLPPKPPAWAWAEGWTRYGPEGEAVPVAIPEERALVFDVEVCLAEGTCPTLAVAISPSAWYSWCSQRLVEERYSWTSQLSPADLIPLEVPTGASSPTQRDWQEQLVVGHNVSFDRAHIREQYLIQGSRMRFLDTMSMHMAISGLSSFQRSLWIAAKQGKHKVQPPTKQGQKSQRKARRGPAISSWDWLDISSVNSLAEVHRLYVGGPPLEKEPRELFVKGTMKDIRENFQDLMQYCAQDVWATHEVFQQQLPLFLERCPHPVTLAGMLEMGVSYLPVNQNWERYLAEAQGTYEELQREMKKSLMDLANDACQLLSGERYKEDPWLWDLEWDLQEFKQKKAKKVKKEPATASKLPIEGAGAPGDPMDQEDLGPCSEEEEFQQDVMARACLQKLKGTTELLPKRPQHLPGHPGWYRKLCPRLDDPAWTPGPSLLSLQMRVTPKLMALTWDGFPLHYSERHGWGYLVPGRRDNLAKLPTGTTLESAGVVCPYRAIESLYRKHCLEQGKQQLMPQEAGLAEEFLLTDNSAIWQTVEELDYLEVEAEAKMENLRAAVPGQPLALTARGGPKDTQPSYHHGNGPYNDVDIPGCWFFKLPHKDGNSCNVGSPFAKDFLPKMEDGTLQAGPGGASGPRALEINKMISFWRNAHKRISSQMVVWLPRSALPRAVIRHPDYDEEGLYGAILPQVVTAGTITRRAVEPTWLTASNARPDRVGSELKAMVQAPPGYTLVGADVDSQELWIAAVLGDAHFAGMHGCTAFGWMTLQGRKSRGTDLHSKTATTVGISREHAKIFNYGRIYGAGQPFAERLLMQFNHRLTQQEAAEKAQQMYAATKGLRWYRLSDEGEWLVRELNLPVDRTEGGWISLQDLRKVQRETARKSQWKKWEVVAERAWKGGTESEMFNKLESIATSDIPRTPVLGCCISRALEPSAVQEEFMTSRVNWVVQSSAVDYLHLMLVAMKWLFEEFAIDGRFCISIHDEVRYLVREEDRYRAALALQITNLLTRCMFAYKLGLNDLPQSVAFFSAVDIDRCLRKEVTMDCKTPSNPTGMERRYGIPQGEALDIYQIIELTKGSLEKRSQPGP
compound,measurement,setting,value
C[C@@]1(F)[C@H](O)[C@@H](COP(=O)(O)OP(=O)(O)OP(=O)(O)O)O[C@H]1n1cnc2c(=O)[nH]c(N)nc21 [AT-9010],half-life at 100 μM,[1],10 h
same,"AUC0-24, intracellular",Huh-7 cells; 10 μM AT-511,5051 pmol*h/10^6 cells
same,"Cmax, intracellular","Huh-7 cells; 10 μM AT-511, 0-24 h",420.3 ± 161.4 pmol/10^6 cells
same,"AUC0-24, intracellular",[2]; 10 μM AT-511,3114 pmol*h/10^6 cells
same,"Cmax, intracellular","[2]; 10 μM AT-511, 0-24 h",192.0 ± 67.3 pmol/10^6 cells
same,IC50,human DNA polymerase γ,> 100 µM
same,"AUC0-24, intracellular",[3]; 10 μM AT-511,195 pmol*h/10^6 cells
same,"Cmax, intracellular","[3]; 10 μM AT-511, 0-24 h",10.4 ± 0.2 pmol/10^6 cells

# Reference: publication PMC6949113, “Preclinical evaluation of AT-527, a novel guanosine nucleotide prodrug with potent, pan-genotypic activity against hepatitis C virus” (PLoS ONE, 2020)
